Reference: PubChem BioAssay AID2060490 (Molecular Pharmacology Branch, DTP, NCI, 2025)

Tested on: 885512-296-R-J2-PDC complex spheroid viability
Experiment: Anticancer human tumor 885512-296-R-J2-PDC patient-derived breast carcinoma cell line growth inhibition [GQUAD]
Details: for IC50: curve of first compound; for viability, T/C: stronger effect = lower value
Summary of the method: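 Tumor cells were grown as complex spheroids with HUVEC endothelial cells and mesenchymal stem cells as stroma. G-quadruplex stabilizers were combined with targeted agents over half-log dilutions from near the clinical Cmax, or from 10 microM.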

[1] = second compound 0.0316 µM, first compound 0.0316 µM
[2] = second compound 0.0316 µM, first compound 0.1 µM
[3] = second compound 0.0316 µM, first compound 0.316 µM
[4] = second compound 0.0316 µM, first compound 1 µM
[5] = second compound 0.0316 µM, first compound 3.16 µM
[6] = second compound 0.0316 µM, first compound 10 µM
[7] = second compound 0.1 µM, first compound 0.0316 µM
[8] = second compound 0.1 µM, first compound 0.1 µM
[9] = second compound 0.1 µM, first compound 0.316 µM
[10] = second compound 0.1 µM, first compound 1 µM
[11] = second compound 0.1 µM, first compound 3.16 µM
[12] = second compound 0.1 µM, first compound 10 µM
[13] = second compound 0.316 µM, first compound 0.0316 µM
[14] = second compound 0.316 µM, first compound 0.1 µM
[15] = second compound 0.316 µM, first compound 0.316 µM
[16] = second compound 0.316 µM, first compound 1 µM
[17] = second compound 0.316 µM, first compound 3.16 µM
[18] = second compound 0.316 µM, first compound 10 µM
[19] = second compound 1 µM, first compound 0.0316 µM
[20] = second compound 1 µM, first compound 0.1 µM
[21] = second compound 1 µM, first compound 0.316 µM
[22] = second compound 1 µM, first compound 1 µM
[23] = second compound 1 µM, first compound 3.16 µM
[24] = second compound 1 µM, first compound 10 µM
[25] = second compound 3.16 µM, first compound 0.0316 µM
[26] = second compound 3.16 µM, first compound 0.1 µM
[27] = second compound 3.16 µM, first compound 0.316 µM
[28] = second compound 3.16 µM, first compound 1 µM
[29] = second compound 3.16 µM, first compound 3.16 µM
[30] = second compound 3.16 µM, first compound 10 µM
[31] = second compound 10 µM, first compound 0.0316 µM
[32] = second compound 10 µM, first compound 0.1 µM
[33] = second compound 10 µM, first compound 0.316 µM
[34] = second compound 10 µM, first compound 1 µM
[35] = second compound 10 µM, first compound 3.16 µM
[36] = second compound 10 µM, first compound 10 µM
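Note: spheroids exposed to the compounds for one week.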
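Throughout, for viability, T/C: percent of tumor spheroid viability relative to DMSO vehicle control wells.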

For `CC(C)n1c(=O)n(C)c2cnc3cc(F)c(-c4ccc(OCCCN5CCCCC5)nc4)cc3c21` + CN(C)c1ccc(Nc2c3ccc(NC(=O)CCN4CCCC4)cc3nc3cc(NC(=O)CCN4CCCC4)ccc23)cc1, the IC50 (second compound 0.0316 µM) was > 10000 nM, the IC50 (second compound 0.1 µM) was > 10000 nM and the IC50 (second compound 0.316 µM) was > 10000 nM. For the same compound, the IC50 (second compound 1 µM) was > 10000 nM, the IC50 (second compound 3.16 µM) was 654 nM and the IC50 (second compound 10 µM) was < 31.6 nM. The viability, T/C [1] was 89.9%, the viability, T/C [2] was 81.4% and the viability, T/C [3] was 97.1%. For the same compound, the viability, T/C [4] was 84.5%, the viability, T/C [5] was 118% and the viability, T/C [6] was 98.2%. The viability, T/C [7] was 81.3%, the viability, T/C [8] was 87.5% and the viability, T/C [9] was 82.2%. The viability, T/C [10] was 95.7%, the viability, T/C [11] was 108% and the viability, T/C [12] was 72.4%. For the same compound, the viability, T/C [13] was 83.4%, the viability, T/C [14] was 69.8% and the viability, T/C [15] was 84.3%. The viability, T/C [16] was 92.9%, the viability, T/C [17] was 118% and the viability, T/C [18] was 78.6%. It also gave a viability, T/C [19] of 84%, a viability, T/C [20] of 86.3% and a viability, T/C [21] of 94.5%. For the same compound, the viability, T/C [22] was 87.9%, the viability, T/C [23] was 94.8% and the viability, T/C [24] was 54.3%. For the same compound, the viability, T/C [25] was 75.3%, the viability, T/C [26] was 70.4% and the viability, T/C [27] was 52%. The viability, T/C [28] was 47.5%, the viability, T/C [29] was 35.4% and the viability, T/C [30] was 18.8%. For the same compound, the viability, T/C [31] was 16.4%, the viability, T/C [32] was 14.6% and the viability, T/C [33] was 13.3%. For the same compound, the viability, T/C [34] was 10.1%, the viability, T/C [35] was 9.73% and the viability, T/C [36] was 2.68%.

`CC(=O)O[C@H]1C(=O)[C@@]2(C)[C@H]([C@H](OC(=O)c3ccccc3)[C@]3(O)C[C@H](OC(=O)[C@H](O)[C@@H](NC(=O)c4ccccc4)c4ccccc4)C(C)=C1C3(C)C)[C@]1(OC(C)=O)CO[C@@H]1C[C@@H]2O` + CN(C)c1ccc(Nc2c3ccc(NC(=O)CCN4CCCC4)cc3nc3cc(NC(=O)CCN4CCCC4)ccc23)cc1 was tested, and the IC50 (second compound 0.0316 µM) was < 31.6 nM, the IC50 (second compound 0.1 µM) was < 31.6 nM and the IC50 (second compound 0.316 µM) was < 31.6 nM. The IC50 (second compound 1 µM) was < 31.6 nM, the IC50 (second compound 3.16 µM) was < 31.6 nM and the IC50 (second compound 10 µM) was < 31.6 nM. The viability, T/C [1] was 7.7%, the viability, T/C [2] was 3.78% and the viability, T/C [3] was 3.71%. For the same compound, the viability, T/C [4] was 2.86%, the viability, T/C [5] was 3.18% and the viability, T/C [6] was 3.65%. It also gave a viability, T/C [7] of 6.67%, a viability, T/C [8] of 3.1% and a viability, T/C [9] of 3.16%. It also gave a viability, T/C [10] of 4.15%, a viability, T/C [11] of 3.73% and a viability, T/C [12] of 3.82%. The viability, T/C [13] was 8.31%, the viability, T/C [14] was 4.86% and the viability, T/C [15] was 3.98%. The viability, T/C [16] was 3.68%, the viability, T/C [17] was 3.77% and the viability, T/C [18] was 3.72%. It also gave a viability, T/C [19] of 10.4%, a viability, T/C [20] of 4.09% and a viability, T/C [21] of 3.56%. The viability, T/C [22] was 3.3%, the viability, T/C [23] was 3.31% and the viability, T/C [24] was 3.95%. The viability, T/C [25] was 5.71%, the viability, T/C [26] was 3.67% and the viability, T/C [27] was 3.71%. It also gave a viability, T/C [28] of 3.88%, a viability, T/C [29] of 5.32% and a viability, T/C [30] of 5.08%. For the same compound, the viability, T/C [31] was 6.02%, the viability, T/C [32] was 4.19% and the viability, T/C [33] was 2.67%. The viability, T/C [34] was 4.93%, the viability, T/C [35] was 3.01% and the viability, T/C [36] was 3.27%.

`CC[C@@]1(O)C(=O)OCc2c1cc1n(c2=O)Cc2cc3c(CN(C)C)c(O)ccc3nc2-1` + Cc1cnc(CNC(=O)c2c(=O)c3ccc(N4CCCN(C)CC4)nc3n3c2sc2ccccc23)cn1 was tested, and the IC50 (second compound 0.0316 µM) was 13.9 nM, the IC50 (second compound 0.1 µM) was 3.86 nM and the IC50 (second compound 0.316 µM) was < 0.999 nM. For the same compound, the IC50 (second compound 1 µM) was < 0.999 nM, the IC50 (second compound 3.16 µM) was < 0.999 nM and the IC50 (second compound 10 µM) was < 0.999 nM. For the same compound, the viability, T/C (second compound 0.0316 µM, first compound 0.000999 µM) was 82.1%, the viability, T/C (second compound 0.0316 µM, first compound 0.00316 µM) was 77.9% and the viability, T/C (second compound 0.0316 µM, first compound 0.00999 µM) was 62.1%. It also gave a viability, T/C [1] of 20.5%, a viability, T/C (second compound 0.0316 µM, first compound 0.0999 µM) of 15.2% and a viability, T/C [3] of 6.65%. It also gave a viability, T/C (second compound 0.1 µM, first compound 0.000999 µM) of 63.8%, a viability, T/C (second compound 0.1 µM, first compound 0.00316 µM) of 52.1% and a viability, T/C (second compound 0.1 µM, first compound 0.00999 µM) of 37.4%. The viability, T/C [7] was 20.1%, the viability, T/C (second compound 0.1 µM, first compound 0.0999 µM) was 13.4% and the viability, T/C [9] was 9.1%. For the same compound, the viability, T/C (second compound 0.316 µM, first compound 0.000999 µM) was 30%, the viability, T/C (second compound 0.316 µM, first compound 0.00316 µM) was 19.1% and the viability, T/C (second compound 0.316 µM, first compound 0.00999 µM) was 21.3%. It also gave a viability, T/C [13] of 16.1%, a viability, T/C (second compound 0.316 µM, first compound 0.0999 µM) of 16.9% and a viability, T/C [15] of 12%. For the same compound, the viability, T/C (second compound 1 µM, first compound 0.000999 µM) was 21.8%, the viability, T/C (second compound 1 µM, first compound 0.00316 µM) was 22.8% and the viability, T/C (second compound 1 µM, first compound 0.00999 µM) was 18.4%. It also gave a viability, T/C [19] of 20.1%, a viability, T/C (second compound 1 µM, first compound 0.0999 µM) of 15.2% and a viability, T/C [21] of 12%. It also gave a viability, T/C (second compound 3.16 µM, first compound 0.000999 µM) of 29.7%, a viability, T/C (second compound 3.16 µM, first compound 0.00316 µM) of 24% and a viability, T/C (second compound 3.16 µM, first compound 0.00999 µM) of 24.8%. It also gave a viability, T/C [25] of 20.2%, a viability, T/C (second compound 3.16 µM, first compound 0.0999 µM) of 12.8% and a viability, T/C [27] of 8.5%. It also gave a viability, T/C (second compound 10 µM, first compound 0.000999 µM) of 0.07%, a viability, T/C (second compound 10 µM, first compound 0.00316 µM) of 0.13% and a viability, T/C (second compound 10 µM, first compound 0.00999 µM) of 0.24%. It also gave a viability, T/C [31] of 0.16%, a viability, T/C (second compound 10 µM, first compound 0.0999 µM) of 0.17% and a viability, T/C [33] of 0.14%.
